Data reported in patent US6448405B1, “Steroid receptor modulator compounds and methods” (Ligand Pharmaceuticals Incorporated, priority 1994, dated 2002).
pEC50, pIC50, pKi: −log10 of the molar value. Like-named read-outs stand apart in the source and are kept apart here.

Columns and labels:
[1] = target: T1, human progesterone receptor A form (PR-A) (Homo sapiens, UniProt P06401); experiment: PR binding assay, baculovirus extract, [3H] progesterone
T1 sequence (P06401 1-769 isoform P06401-2): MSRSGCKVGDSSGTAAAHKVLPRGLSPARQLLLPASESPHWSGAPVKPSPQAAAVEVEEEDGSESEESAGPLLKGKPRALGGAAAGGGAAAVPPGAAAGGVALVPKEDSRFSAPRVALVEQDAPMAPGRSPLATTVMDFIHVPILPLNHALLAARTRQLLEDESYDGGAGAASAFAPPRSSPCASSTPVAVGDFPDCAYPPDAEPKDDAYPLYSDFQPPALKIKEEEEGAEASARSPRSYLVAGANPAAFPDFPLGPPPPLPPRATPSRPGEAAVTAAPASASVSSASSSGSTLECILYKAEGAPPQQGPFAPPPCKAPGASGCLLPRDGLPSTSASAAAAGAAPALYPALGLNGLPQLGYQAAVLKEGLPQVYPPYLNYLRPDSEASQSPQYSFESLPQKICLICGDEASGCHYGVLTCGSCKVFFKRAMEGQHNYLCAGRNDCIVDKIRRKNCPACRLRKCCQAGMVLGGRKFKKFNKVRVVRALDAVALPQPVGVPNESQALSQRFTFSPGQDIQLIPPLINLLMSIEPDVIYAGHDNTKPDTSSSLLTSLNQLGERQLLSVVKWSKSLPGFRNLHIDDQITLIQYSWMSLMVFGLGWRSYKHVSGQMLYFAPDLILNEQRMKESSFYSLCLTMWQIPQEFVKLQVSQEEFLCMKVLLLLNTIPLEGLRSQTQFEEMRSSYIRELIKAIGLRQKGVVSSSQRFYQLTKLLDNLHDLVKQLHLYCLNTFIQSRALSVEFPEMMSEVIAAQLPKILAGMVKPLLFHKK

[2] = target: T2, human PR-B (Homo sapiens, UniProt P06401); experiment: Co-transfection assay, PR agonist and antagonist activity, CV-1 cells; format: cell-based; conditions: for pEC50: agonist mode, EC50, read-out: PR Agonist CV-1 Cells Potency;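 as to all read-outs here: luciferase reporter driven by a hormone response element, co-transfected with human PR-B into CV-1 monkey kidney cells, agonists raise and antagonists lower the reporter signal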
T2 construct: expressed in transfected cells; host or cells: CV-1 cells (African green monkey kidney fibroblasts), transient transfection
T2 sequence (P06401 1-933): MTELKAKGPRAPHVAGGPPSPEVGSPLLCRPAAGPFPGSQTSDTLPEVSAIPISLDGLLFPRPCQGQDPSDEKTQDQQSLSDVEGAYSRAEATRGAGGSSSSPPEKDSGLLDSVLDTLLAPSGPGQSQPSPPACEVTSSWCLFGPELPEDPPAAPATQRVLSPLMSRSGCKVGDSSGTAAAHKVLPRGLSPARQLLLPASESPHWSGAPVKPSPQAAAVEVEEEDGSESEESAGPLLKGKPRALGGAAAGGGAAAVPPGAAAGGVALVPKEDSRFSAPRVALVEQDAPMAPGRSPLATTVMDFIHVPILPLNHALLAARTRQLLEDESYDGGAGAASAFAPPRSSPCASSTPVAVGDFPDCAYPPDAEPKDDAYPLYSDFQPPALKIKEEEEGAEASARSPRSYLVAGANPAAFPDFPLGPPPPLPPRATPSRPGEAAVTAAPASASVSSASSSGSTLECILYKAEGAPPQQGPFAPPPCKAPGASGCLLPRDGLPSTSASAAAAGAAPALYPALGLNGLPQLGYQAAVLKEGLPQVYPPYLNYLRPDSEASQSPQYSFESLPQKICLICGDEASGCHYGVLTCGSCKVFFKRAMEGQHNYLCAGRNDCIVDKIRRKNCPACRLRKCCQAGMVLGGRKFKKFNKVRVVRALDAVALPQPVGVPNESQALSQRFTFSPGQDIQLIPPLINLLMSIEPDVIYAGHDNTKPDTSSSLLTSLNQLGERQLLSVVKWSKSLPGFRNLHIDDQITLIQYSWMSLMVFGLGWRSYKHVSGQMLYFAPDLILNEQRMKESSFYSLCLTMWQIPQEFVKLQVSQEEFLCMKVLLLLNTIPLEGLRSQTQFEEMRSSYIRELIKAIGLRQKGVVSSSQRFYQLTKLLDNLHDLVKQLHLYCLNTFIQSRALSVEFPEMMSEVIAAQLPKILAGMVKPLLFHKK

[3] = read-out: PR Antagonist CV-1 Cells Potency

| pKi [1] | pIC50 [2] | Compound | pKi ([1]; read-out: PR Binding Ki) | PR Agonist CV-1 Cells Efficacy (%) [2] | PR Antagonist CV-1 Cells Efficacy (%) [2] | pEC50 [2] | pIC50 [2, 3] | pKi ([1]; competition with [3H] progesterone, 4° C., 16 hours, read-out: PR Binding Ki) |
| --- | --- | --- | --- | --- | --- | --- | --- | --- |
| – | – | CC1=CC(C)(C)Nc2ccc(-c3nn(C)cc3Br)cc21 [Compound 104, 6-(4-Bromo-1-methylpyrazol-3-yl)-1,2-dihydro-2,2,4-trimethylquinoline] | 7.09 | 39% | 71% | 5.56 | 6.92 | – |
| – | – | CC1=CC(C)(C)Nc2ccc(-c3cccc(Cl)c3Cl)cc21 [Compound 109, 6-(2,3-Dichlorophenyl)-1,2-dihydro-2,2,4-trimethylquinoline] | 7.64 | na (na = not active (i.e. efficacy or <20 and potency of >10,000)) | 87% | < 5.00 | 6.86 | – |
| 9.00 | < 5.00 | CC1=CC(C)(C)Nc2ccc3c(c21)/C(=C/c1ccccc1)Oc1ccccc1-3 [Compound 220, (Z)-5-Benzylidene-1,2-dihydro-2,2,4-trimethyl-5H-chromeno[3,4-f]quinoline] | – | – | na (key: na = not active (i.e. efficacy or <20 and potency of >10,000)) | 7.48 | – | – |
| 8.40 | < 5.00 | CC1=CC(C)(C)Nc2ccc3c(c21)/C(=C/c1ccc(F)cc1)Oc1ccccc1-3 [Compound 221, (Z)-5-(4-Fluorobenzylidene)-1,2-dihydro-2,2,4-trimethyl-5H-chromeno[3,4-f]quinoline] | – | – | na (key: na = not active (i.e. efficacy or <20 and potency of >10,000)) | 6.93 | – | – |
| 8.52 | < 5.00 | CC1=CC(C)(C)Nc2ccc3c(c21)/C(=C/c1ccccc1F)Oc1ccccc1-3 [Compound 228, (Z)-5-(2-Fluorobenzylidene)-1,2-dihydro-2,2,4-trimethyl-5H-chromeno[3,4-f]quinoline] | – | – | na (key: na = not active (i.e. efficacy or <20 and potency of >10,000)) | 7.40 | – | – |
| – | – | CC1C(=O)C(C)(C)Nc2ccc(-c3cc(F)cc(C#N)c3)cc21 (stereo not shown) [Compound 286, 6-(3-Cyano-5-Fluorophenyl)-1,2-dihydro-2,2,4-trimethyl-3-quinolone] | 7.21 | na (na = not active (i.e. efficacy or <20 and potency of >10,000)) | 84% | < 5.00 | 6.81 | – |
| – | – | CC1=CC(C)(C)Nc2c(F)cc(-c3cccc([N+](=O)[O-])c3)cc21 [Compound 291, 8-Fluoro-1,2-dihydro-2,2,4-trimethyl-6-(3-nitrophenyl)quinoline] | 8.40 | na (na = not active (i.e. efficacy or <20 and potency of >10,000)) | 79% | < 5.00 | 7.34 | – |
| – | – | CC1=CC(C)(C)Nc2ccc(-c3cccc([N+](=O)[O-])c3)c(Cl)c21 [Compound 310, 5-Chloro-1,2-dihydro-2,2,4-trimethyl-6-(3-nitrophenyl)quinoline] | 8.15 | na (na = not active (i.e. efficacy or <20 and potency of >10,000)) | 70% | < 5.00 | 6.59 | – |
| – | – | CC1(C)C=Cc2c(ccc3c2c(=O)oc2ccc(Cl)cc23)N1 [Compound 313, 9-Chloro-1,2-dihydro-2,2-dimethyl-5-coumarino[3,4-f]quinoline] | 7.06 | – | – | 6.52 | 6.85 | – |
| – | – | CC1=CC(C)(C)Nc2ccc3c(c21)COc1c(Cl)cccc1-3 [Compound 331, (R/S)-7-Chloro-1,2-dihydro-2,2,4-trimethyl-5H-chromeno[3,4-f]quinoline] | – | na (na = not active (i.e. efficacy or <20 and potency of >10,000)) | 88% | < 5.00 | 6.68 | 6.56 |
| – | – | CC1(C)C=Cc2c(ccc3c2/C(=C/c2ccccc2)Oc2ccc(Cl)cc2-3)N1 [Compound 368, (Z)-5-Benzylidene-9-chloro-1,2-dihydro-2,2-dimethyl-5H-chromeno[3,4-f]quinoline] | 8.40 | 183% | na (na = not active (i.e. efficacy or <20 and potency of >10,000)) | 7.37 | < 5.00 | – |
| – | – | CC1=CC(C)(C)Nc2cc(C)c3c(c21)/C(=C/c1ccccc1)Oc1ccc(F)cc1-3 [Compound 377, (Z)-5-Benzylidene-9-Fluoro-1,2-dihydro-2,2,4,11-tetramethyl-5H-chromeno[3,4-f]quinoline] | 7.70 | 101% | na (na = not active (i.e. efficacy or <20 and potency of >10,000)) | 6.26 | < 5.00 | – |
| 7.77 | 7.62 | CC1=CC(C)(C)Nc2ccc(-c3csc(C#N)c3)cc21 [Compound 452, 6-(5-Cyano-3-thienyl)-1,2-dihydro-2,2,4-trimethylquinoline] | – | – | – | 5.62 | – | – |
